Results: ChEMBL document CHEMBL4622837, “Finding the mechanism of esterase D activation by a small molecule” (Bioorg Med Chem Lett, 2020)
Active and inactive are the calls of the source. The calls are words filed in the database; no cut-off is given here.

Key:
[1] = target: T1, S-formylglutathione hydrolase (Homo sapiens) (UniProt P10768); assay: Activation of human ESD expressed in HEK293T cells transfected with pEGFP-N1 at 0.1 uM after 24 hrs; type: cell-based; conditions: HEK-293T
T1 sequence (whole entry): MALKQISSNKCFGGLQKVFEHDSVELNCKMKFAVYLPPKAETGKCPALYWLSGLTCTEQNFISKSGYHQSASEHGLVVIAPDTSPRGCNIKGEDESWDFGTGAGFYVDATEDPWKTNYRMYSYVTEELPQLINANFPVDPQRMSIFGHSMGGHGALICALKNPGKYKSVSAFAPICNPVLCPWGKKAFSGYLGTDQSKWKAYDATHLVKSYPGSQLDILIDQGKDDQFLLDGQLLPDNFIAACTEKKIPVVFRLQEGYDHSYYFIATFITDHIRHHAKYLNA

[2] = target: T1, S-formylglutathione hydrolase (Homo sapiens); assay: Activation of ESD in human L02 cells at 0.1 to 1 uM after 24 hrs; type: cell-based
[3] = target: T1, S-formylglutathione hydrolase (Homo sapiens); assay: Activation of human ESD expressed in HEK293T cells transfected with pEGFP-N1 assessed as protein redistribution in cytoplasm by fluorescence microscopic analysis; type: cell-based; conditions: HEK-293T
[4] = target: T1, S-formylglutathione hydrolase (Homo sapiens); assay: Activation of human ESD expressed in HEK293T cells transfected with pEGFP-N1 assessed as compound co-localization with protein by fluorescence microscopic analysis; type: cell-based; conditions: HEK-293T
[5] = target: T1, S-formylglutathione hydrolase (Homo sapiens); assay: Inhibition of IgG binding to ESD in human L02 cells by immuno precipitation assay; type: cell-based
[6] = target: T1, S-formylglutathione hydrolase (Homo sapiens); assay: Binding affinity to human ESD expressed in HEK293T cells assessed as association rate constant; type: cell-based; conditions: HEK-293T
[7] = target: T2, S-formylglutathione hydrolase (Homo sapiens, UniProt P10768); assay: Binding affinity to human ESD expressed in HEK293T cells assessed as dissociation rate constant; type: cell-based; conditions: hek-293t
T2 sequence (P10768 whole entry): T1 sequence (whole entry)

[8] = target: T2, S-formylglutathione hydrolase; assay: Binding affinity to human ESD expressed in HEK293T cells assessed as dissociation constant; type: cell-based, HEK-293T
[9] = target: T1, S-formylglutathione hydrolase (Homo sapiens); assay: Activation of wild type human ESD expressed in HEK293T cells assessed as increase in protein mono ubiquitination at 0.1 to 1 uM incubated for 12 hrs by Western blot analysis; type: cell-based; conditions: HEK-293T
[10] = tested on: HEK-293T; assay: Activation of ESD K180A mutant (unknown origin) expressed in HEK293T cells transfected with p-EGFP assessed as increase in protein mono ubiquitination at 0.1 to 1 uM measured up to 36 hrs by Western blot analysis; type: cell-based; conditions: Homo sapiens
[11] = tested on: HEK-293T; assay: Activation of ESD K213A mutant (unknown origin) expressed in HEK293T cells transfected with p-EGFP assessed as increase in protein mono ubiquitination at 0.1 to 1 uM measured up to 36 hrs by Western blot analysis; type: cell-based; conditions: Homo sapiens
[12] = target: T1, S-formylglutathione hydrolase (Homo sapiens); assay: Activation of human ESD expressed in HEK293T cells transfected with pEGFP-N1 assessed as induction of protein mono ubiquitination at 5 uM after 3 hrs by immunoblotting analysis; type: cell-based; conditions: HEK-293T
[13] = target: T1, S-formylglutathione hydrolase (Homo sapiens); assay: Activation of human ESD expressed in HEK293T cells transfected with pEGFP-N1 assessed as induction of protein mono ubiquitination at 1 to 5 uM after 6 hrs by immunoblotting analysis; type: cell-based; conditions: HEK-293T
[14] = target: T1, S-formylglutathione hydrolase (Homo sapiens); assay: Activation of human ESD expressed in HEK293T cells transfected with pEGFP-N1 assessed as increase in protein mono ubiquitination at 0.1 to 5 uM after 12 to 24 hrs by immunoblotting analysis; type: cell-based; conditions: HEK-293T
[15] = tested on: HEK-293T; assay: Activation of ESD K180A mutant (unknown origin) expressed in HEK293T cells transfected with p-EGFP assessed as protein mono ubiquitination at 0.1 to 1 uM measured up to 24 hrs by Western blot analysis; type: cell-based; conditions: Homo sapiens
[16] = tested on: HEK-293T; assay: Activation of ESD K213A mutant (unknown origin) expressed in HEK293T cells transfected with p-EGFP assessed as induction of protein mono ubiquitination at 0.1 to 1 uM measured up to 24 hrs by immunoblotting analysis; type: cell-based; conditions: Homo sapiens
[17] = tested on: HeLa; assay: Activation of ESD K180A mutant (unknown origin) expressed in human HeLa cells transfected with p-EGFP assessed as compound co-localization with protein by fluorescence microscopic analysis; type: cell-based
[18] = tested on: HeLa; assay: Activation of ESD K213A mutant (unknown origin) expressed in human HeLa cells transfected with p-EGFP assessed as protein co-localization by fluorescence microscopic analysis; type: cell-based
[19] = tested on: HeLa; assay: Activation of ESD K180A mutant (unknown origin) expressed in human HeLa cells transfected with p-EGFP at 0.1 uM; type: cell-based
[20] = tested on: HeLa; assay: Activation of ESD K213A mutant (unknown origin) expressed in human HeLa cells transfected with p-EGFP at 0.1 uM; type: cell-based
[21] = target: T1, S-formylglutathione hydrolase (Homo sapiens); assay: Inhibition of IgG binding to human ESD expressed in HEK293T cells; type: cell-based; conditions: HEK-293T
[22] = tested on: HEK-293T; assay: Inhibition of IgG binding to ESD K180A mutant (unknown origin) expressed in HEK293T cells; type: cell-based; conditions: Homo sapiens
[23] = tested on: HEK-293T; assay: Inhibition of IgG binding to ESD K213A mutant (unknown origin) expressed in HEK293T cells; type: cell-based; conditions: Homo sapiens

- Activity [1]: Active
- Activity [2]: Active
- Activity [3]: Active
- Activity [4]: Active
- inhibition [5]: Dose-dependent effect
- Ka [6]: 5.2 ×10⁵ /M/s
- Kd [7]: 4.4 ×10⁻⁴ /s
- Kd [8]: 0.8 nM
- Activity [9]: Active
- Activity [12]: Active
- Activity [13]: Active
- Activity [14]: Active
- inhibition [21]: Dose-dependent effect
SMILES: Oc1ccc(Cl)cc1C1=NN(c2ccccn2)C(c2ccccc2)C1 (stereo not drawn)
- Activity [10]: inactive
- Activity [11]: inactive
- Activity [15]: inactive
- Activity [16]: inactive
- Activity [17]: inactive
- Activity [18]: inactive
- Activity [19]: inactive
- Activity [20]: inactive
- inhibition [22]: inactive
- inhibition [23]: inactive
